Source: ChEMBL document CHEMBL4800727 (2021)

Columns and labels:
Details in all cases: Compound concentration 10.0 uM
[1] = target: Vascular endothelial growth factor receptor 3 (Homo sapiens) (UniProt P35916); assay: fms-related tyrosine kinase 4 Millipore kinase panel
[2] = target: Histamine H2 receptor (Homo sapiens) (UniProt P25021); assay: hH2 Cerep panel
[3] = target: T1, 5-hydroxytryptamine receptor 1A (Homo sapiens) (UniProt P08908)
T1 sequence (whole entry): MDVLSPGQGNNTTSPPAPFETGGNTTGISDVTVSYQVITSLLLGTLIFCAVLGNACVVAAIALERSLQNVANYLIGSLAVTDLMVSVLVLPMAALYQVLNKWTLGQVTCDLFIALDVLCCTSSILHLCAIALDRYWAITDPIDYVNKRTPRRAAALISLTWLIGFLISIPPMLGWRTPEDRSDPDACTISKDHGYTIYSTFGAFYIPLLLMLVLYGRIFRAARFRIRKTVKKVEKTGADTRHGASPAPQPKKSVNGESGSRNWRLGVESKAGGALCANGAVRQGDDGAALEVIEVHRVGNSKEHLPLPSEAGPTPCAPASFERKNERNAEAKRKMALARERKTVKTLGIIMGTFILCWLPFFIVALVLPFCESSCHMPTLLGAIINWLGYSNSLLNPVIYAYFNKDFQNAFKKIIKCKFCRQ

[4] = target: 5-hydroxytryptamine receptor 2A (Homo sapiens) (UniProt P28223)
[5] = target: T2, 5-hydroxytryptamine receptor 3A (Homo sapiens) (UniProt P46098)
T2 sequence (whole entry): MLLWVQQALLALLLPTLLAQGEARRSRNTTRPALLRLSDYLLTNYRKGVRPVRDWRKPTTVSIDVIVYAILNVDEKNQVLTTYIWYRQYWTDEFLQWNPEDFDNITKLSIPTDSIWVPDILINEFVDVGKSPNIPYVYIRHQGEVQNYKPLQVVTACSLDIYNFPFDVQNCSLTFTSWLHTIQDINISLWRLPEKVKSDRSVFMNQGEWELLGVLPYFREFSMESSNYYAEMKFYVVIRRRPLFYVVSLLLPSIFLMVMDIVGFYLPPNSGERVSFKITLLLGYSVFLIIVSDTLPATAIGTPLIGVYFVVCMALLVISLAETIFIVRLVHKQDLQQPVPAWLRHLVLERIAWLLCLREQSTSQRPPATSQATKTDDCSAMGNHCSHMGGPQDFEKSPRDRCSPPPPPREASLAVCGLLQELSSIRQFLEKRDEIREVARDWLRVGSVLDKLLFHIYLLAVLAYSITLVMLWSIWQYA

[6] = target: 5-hydroxytryptamine receptor 6 (Homo sapiens) (UniProt P50406)
[7] = target: D(4) dopamine receptor (Homo sapiens) (UniProt P21917)
[8] = target: Sodium-dependent serotonin transporter (Homo sapiens) (UniProt P31645)
[9] = target: Sodium-dependent noradrenaline transporter (Homo sapiens) (UniProt P23975)
[10] = target: Kappa-type opioid receptor (Homo sapiens) (UniProt P41145)
[11] = target: GABA-A receptor; anion channel (Rattus norvegicus) (UniProt O09028+P15431+P18506+P18508+P19969+P20236+P23574+P23576+P28471+P28473+P30191+P62813+P63079+P63138+Q91ZM7+Q9ES14)
[12] = target: Histamine H1 receptor (Homo sapiens) (UniProt P35367)
[13] = target: Histamine H3 receptor (Homo sapiens) (UniProt Q9Y5N1)
[14] = target: Alpha-1A adrenergic receptor (Homo sapiens) (UniProt P35348)
[15] = target: Alpha-2C adrenergic receptor (Homo sapiens) (UniProt P18825)
[16] = target: Beta-1 adrenergic receptor (Homo sapiens) (UniProt P08588)
[17] = target: Beta-2 adrenergic receptor (Homo sapiens) (UniProt P07550)
[18] = target: T3, Muscarinic acetylcholine receptor M2 (Homo sapiens) (UniProt P08172)
T3 sequence (whole entry): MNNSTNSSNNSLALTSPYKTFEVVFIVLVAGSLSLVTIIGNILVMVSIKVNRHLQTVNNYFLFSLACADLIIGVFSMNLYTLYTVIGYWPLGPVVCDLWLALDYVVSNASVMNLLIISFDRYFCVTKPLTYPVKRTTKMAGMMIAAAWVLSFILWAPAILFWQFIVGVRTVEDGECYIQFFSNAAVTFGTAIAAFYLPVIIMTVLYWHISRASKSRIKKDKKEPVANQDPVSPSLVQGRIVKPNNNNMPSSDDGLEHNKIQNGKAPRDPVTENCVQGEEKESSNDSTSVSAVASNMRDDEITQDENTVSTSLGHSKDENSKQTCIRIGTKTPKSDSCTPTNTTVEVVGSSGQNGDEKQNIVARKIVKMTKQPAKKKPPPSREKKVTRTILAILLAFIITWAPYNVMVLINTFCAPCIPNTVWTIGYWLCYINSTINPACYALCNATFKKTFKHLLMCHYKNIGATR

[19] = target: T4, Muscarinic acetylcholine receptor M4 (Homo sapiens) (UniProt P08173)
T4 sequence (whole entry): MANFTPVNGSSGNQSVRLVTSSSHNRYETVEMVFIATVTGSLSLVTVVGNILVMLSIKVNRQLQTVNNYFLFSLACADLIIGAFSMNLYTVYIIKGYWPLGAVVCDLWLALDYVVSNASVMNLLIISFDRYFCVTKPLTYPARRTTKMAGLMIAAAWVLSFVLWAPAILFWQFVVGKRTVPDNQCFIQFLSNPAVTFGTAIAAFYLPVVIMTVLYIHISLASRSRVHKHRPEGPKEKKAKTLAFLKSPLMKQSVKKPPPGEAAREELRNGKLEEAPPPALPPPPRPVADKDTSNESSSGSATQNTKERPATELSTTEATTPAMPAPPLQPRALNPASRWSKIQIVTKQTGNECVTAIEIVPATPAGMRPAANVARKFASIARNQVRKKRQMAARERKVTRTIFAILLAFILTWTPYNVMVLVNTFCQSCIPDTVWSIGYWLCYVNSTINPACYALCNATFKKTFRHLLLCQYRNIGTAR

[20] = target: Alpha-1D adrenergic receptor (Homo sapiens) (UniProt P25100)
Alpha-1D adrenergic receptor (Homo sapiens), sequence (P25100 whole entry): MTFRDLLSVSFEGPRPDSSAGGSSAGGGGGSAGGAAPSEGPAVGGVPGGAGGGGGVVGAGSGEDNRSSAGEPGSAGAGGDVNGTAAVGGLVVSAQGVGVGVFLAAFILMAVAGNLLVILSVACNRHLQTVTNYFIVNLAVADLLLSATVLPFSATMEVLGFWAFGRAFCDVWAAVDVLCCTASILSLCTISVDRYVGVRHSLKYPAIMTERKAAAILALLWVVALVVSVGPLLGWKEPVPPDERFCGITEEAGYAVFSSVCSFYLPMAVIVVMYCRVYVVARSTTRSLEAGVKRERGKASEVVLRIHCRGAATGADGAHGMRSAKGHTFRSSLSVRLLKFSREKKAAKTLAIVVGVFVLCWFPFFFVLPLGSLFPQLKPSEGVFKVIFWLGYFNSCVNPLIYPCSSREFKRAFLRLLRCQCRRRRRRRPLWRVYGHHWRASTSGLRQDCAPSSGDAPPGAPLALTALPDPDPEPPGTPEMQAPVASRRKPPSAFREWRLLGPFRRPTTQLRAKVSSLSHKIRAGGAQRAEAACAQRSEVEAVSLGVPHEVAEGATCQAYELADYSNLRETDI

Histamine H1 receptor (Homo sapiens), sequence (P35367 whole entry): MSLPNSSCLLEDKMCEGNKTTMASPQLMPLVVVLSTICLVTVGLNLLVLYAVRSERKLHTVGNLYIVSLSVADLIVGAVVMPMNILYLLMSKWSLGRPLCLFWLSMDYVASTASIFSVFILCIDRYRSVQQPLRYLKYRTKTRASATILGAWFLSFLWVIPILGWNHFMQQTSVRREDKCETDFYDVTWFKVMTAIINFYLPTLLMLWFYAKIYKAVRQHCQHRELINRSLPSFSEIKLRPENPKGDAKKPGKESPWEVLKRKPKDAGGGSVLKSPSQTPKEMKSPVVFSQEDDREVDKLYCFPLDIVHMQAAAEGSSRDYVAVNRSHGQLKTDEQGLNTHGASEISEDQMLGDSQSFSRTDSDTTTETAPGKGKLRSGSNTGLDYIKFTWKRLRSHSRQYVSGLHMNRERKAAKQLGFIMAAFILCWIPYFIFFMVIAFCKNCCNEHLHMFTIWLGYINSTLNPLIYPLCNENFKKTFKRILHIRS
5-hydroxytryptamine receptor 6 (Homo sapiens), sequence (P50406 whole entry): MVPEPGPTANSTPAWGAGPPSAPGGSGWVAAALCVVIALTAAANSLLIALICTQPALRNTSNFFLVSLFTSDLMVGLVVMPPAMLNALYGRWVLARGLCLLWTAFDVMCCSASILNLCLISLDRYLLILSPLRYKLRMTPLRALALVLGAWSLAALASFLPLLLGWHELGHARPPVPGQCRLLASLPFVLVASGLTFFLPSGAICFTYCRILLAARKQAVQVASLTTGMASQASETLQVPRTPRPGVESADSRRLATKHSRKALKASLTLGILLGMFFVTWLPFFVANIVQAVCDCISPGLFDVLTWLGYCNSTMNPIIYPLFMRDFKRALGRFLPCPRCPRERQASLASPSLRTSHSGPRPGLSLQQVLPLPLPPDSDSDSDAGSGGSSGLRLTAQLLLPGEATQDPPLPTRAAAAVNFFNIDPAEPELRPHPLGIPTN
Sodium-dependent noradrenaline transporter (Homo sapiens), sequence (P23975 whole entry): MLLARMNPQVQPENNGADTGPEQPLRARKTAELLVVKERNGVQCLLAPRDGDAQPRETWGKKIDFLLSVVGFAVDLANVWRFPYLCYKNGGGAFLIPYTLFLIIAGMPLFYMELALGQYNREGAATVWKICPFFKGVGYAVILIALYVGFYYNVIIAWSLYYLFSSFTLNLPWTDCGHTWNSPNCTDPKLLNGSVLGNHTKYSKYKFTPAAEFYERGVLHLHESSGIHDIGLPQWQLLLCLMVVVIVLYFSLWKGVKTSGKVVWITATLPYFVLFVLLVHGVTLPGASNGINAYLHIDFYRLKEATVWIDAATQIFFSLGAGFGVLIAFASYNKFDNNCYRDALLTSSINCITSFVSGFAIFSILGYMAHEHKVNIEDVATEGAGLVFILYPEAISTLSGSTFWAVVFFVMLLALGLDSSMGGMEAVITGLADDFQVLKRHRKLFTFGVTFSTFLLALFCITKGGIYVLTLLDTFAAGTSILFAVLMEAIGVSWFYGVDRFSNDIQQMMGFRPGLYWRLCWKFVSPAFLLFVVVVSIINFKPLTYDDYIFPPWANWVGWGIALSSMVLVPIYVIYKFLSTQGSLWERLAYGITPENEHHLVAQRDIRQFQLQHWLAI
Beta-1 adrenergic receptor (Homo sapiens), sequence (P08588 whole entry, looked up): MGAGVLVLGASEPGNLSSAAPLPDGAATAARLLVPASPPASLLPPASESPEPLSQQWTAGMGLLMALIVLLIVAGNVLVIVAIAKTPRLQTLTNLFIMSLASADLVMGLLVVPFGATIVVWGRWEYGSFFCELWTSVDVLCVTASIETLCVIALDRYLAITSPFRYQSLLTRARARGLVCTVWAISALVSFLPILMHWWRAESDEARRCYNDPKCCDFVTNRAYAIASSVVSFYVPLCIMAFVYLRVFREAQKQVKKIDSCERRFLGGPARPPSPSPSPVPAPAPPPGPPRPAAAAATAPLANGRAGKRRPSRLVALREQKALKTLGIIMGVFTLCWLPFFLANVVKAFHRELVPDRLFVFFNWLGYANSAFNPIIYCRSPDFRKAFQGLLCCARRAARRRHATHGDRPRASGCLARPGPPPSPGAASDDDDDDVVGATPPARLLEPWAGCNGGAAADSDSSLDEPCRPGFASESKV
Alpha-1A adrenergic receptor (Homo sapiens), sequence (P35348 whole entry): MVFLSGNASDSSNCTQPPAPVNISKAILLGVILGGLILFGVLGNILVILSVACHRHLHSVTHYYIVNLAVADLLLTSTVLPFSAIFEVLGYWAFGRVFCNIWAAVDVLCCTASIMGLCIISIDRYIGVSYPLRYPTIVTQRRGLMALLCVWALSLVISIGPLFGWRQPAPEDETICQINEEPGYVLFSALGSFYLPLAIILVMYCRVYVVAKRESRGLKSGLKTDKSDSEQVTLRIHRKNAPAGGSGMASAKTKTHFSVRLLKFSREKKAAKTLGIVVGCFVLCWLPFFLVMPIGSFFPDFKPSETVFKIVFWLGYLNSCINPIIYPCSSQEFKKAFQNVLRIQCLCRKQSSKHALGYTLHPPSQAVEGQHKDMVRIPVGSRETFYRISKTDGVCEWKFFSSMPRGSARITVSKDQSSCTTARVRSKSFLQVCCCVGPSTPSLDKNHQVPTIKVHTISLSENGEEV
Kappa-type opioid receptor (Homo sapiens), sequence (P41145 whole entry): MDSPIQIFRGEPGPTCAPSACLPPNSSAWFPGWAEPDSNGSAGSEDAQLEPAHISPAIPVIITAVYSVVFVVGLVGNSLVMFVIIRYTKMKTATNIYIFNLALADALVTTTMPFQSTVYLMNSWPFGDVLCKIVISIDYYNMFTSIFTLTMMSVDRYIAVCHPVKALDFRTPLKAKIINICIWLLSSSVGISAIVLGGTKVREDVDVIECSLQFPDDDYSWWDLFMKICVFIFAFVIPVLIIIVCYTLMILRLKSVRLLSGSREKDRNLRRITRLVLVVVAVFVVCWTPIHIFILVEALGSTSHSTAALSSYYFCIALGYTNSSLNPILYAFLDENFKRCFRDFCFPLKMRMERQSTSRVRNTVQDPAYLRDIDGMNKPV
Beta-2 adrenergic receptor (Homo sapiens), sequence (P07550 whole entry, looked up): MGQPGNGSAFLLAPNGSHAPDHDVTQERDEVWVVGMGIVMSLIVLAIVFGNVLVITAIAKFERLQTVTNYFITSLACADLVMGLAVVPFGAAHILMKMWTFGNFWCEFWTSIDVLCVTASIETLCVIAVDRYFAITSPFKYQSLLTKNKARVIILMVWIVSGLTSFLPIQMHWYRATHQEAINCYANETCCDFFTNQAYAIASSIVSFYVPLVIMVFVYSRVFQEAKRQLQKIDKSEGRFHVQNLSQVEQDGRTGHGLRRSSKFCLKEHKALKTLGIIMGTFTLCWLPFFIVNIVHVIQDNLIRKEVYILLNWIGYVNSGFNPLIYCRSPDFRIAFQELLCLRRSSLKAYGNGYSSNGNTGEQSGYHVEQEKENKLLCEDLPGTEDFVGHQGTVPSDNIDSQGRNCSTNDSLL
5-hydroxytryptamine receptor 2A (Homo sapiens), sequence (P28223 whole entry): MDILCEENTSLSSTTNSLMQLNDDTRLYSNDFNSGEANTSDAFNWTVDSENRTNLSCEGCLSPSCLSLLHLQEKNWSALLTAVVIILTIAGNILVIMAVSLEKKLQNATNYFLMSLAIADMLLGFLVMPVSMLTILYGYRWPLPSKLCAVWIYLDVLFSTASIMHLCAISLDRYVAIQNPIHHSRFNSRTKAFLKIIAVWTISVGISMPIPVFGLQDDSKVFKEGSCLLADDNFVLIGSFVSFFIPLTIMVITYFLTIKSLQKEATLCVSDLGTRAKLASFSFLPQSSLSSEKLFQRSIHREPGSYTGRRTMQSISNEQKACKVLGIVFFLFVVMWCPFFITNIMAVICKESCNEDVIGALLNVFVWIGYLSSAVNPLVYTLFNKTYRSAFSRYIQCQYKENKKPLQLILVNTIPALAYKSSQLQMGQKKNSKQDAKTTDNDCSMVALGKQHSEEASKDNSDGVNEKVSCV
Sodium-dependent serotonin transporter (Homo sapiens), sequence (P31645 whole entry, looked up): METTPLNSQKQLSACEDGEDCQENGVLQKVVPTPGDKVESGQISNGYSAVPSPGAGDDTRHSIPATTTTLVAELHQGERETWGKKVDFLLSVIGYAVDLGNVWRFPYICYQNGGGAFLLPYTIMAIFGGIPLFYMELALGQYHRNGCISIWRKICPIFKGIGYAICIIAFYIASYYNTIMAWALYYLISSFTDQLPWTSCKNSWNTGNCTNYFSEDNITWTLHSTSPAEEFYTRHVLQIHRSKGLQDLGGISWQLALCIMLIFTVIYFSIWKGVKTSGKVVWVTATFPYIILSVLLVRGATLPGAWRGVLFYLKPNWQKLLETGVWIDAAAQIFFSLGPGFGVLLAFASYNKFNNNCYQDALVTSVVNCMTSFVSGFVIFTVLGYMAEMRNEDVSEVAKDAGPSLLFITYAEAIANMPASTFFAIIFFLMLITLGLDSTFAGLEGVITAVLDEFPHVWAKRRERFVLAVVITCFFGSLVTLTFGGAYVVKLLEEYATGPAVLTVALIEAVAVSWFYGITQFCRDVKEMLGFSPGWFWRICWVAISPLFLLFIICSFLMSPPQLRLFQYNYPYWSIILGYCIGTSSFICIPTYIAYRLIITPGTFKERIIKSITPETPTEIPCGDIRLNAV

SMILES: COCCc1ccc(-c2c(C)nc3c(N4CCOCC4)ccnn23)cn1 [JNJ-42396302]
- inhibition [1]: -4%
- effect [2]: 18.1%
- inhibition [3]: 22.9%
- inhibition [4]: 45.9%
- inhibition [5]: 4.69%
- inhibition [6]: 18.5%
- inhibition [7]: -3.39%
- inhibition [8]: 0.57%
- inhibition [9]: 16%
- inhibition [10]: 14.5%
- inhibition [11]: 0.32%
- inhibition [12]: 24.6%
- inhibition [13]: 3.7%
- inhibition [14]: 23%
- inhibition [15]: 41.3%
- inhibition [16]: 3.43%
- inhibition [17]: -1.12%
- inhibition [18]: 10.4%
- inhibition [19]: 5.21%
- inhibition [20]: 15.3%

SMILES: c1ccc(C2CCN(c3cnc4c(N5CCOCC5)nccn34)CC2)cc1
- inhibition [3]: 25.7%
- inhibition [4]: 13.1%
- inhibition [5]: 9.38%
- inhibition [6]: -7.87%
- inhibition [7]: 0.44%
- inhibition [8]: 3.12%
- inhibition [9]: 17.4%
- inhibition [10]: 6.44%
- inhibition [11]: 59.8%
- inhibition [12]: 11.2%
- inhibition [13]: 7.29%
- inhibition [14]: 22.5%
- inhibition [15]: 16.5%
- inhibition [16]: 23.5%
- inhibition [17]: 8.86%
- inhibition [18]: 9.44%
- inhibition [19]: -5.45%
- inhibition [20]: 10.7%
